Results taken from ChEMBL document CHEMBL1201862, “PubChem BioAssay data set” (2004).
Activity calls are given as the source filed them.

Columns and labels:
[1] = target: T1, Streptokinase A (Streptococcus pyogenes serotype M1, UniProt P10520); experiment: Absorbance Microorganism-Based Dose Response Follow up to Identify Inhibitors of Streptokinase Expression. [Related pubchem assays: 1677 (Project Summary), 1915, 1914, 1902 (Retest at Dose), 1900 (Counter Screen), 1662 (Primary HTS)]; assay type: functional, Streptococcus pyogenes M1 GAS
T1 sequence (P10520 whole entry): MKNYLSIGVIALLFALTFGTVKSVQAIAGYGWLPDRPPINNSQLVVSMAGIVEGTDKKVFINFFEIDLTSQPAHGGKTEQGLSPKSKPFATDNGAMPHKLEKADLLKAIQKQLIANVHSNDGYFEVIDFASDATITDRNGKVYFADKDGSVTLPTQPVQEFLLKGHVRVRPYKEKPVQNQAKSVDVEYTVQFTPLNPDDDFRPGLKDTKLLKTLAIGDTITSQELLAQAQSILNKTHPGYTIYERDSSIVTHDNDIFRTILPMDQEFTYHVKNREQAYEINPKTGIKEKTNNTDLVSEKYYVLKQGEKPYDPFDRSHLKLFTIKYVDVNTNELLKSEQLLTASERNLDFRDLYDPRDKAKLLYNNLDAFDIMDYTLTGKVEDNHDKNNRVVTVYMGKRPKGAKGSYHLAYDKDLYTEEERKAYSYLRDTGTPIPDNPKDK

[2] = system: Streptococcus; experiment: Streptococcus pyogenes growth inhibition counter-screen, dose response, counter-screen for streptokinase expression inhibitor project, luminescence, BacTiter-Glo, strain UMAA2166 (AID 2477); assay type: functional, organism-based
[3] = target: T2, Mannose-6-phosphate isomerase (Homo sapiens, UniProt P34949); experiment: inhibitors of human PMI, primary screen, biochemical, fluorescence intensity, coupled assay (AID 1209)
T2 sequence (P34949 whole entry): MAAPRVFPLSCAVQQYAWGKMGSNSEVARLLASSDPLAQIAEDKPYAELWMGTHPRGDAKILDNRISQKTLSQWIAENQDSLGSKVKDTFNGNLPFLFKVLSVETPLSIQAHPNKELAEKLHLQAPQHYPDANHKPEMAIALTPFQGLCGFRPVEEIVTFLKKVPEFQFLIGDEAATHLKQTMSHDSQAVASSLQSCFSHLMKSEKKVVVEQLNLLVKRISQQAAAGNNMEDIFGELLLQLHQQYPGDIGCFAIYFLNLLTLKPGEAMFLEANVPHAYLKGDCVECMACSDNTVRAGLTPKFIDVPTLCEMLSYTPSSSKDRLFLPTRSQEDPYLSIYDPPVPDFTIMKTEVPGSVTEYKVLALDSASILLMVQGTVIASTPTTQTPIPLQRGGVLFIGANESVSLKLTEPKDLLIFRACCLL

[4] = Luminescence Cell-Based Dose Response HTS to Identify Activators of Luciferase Translation or Activity in H4 […] Cells. [Related pubchem assays: 1829 (Project Summary), 1814 (Primary HTS)]; assay type: functional
[5] = Luminescence Cell-Based Dose Confirmation HTS to Identify Activators of 5'UTR Stem-Loop Driven Alpha-Synuclein mRNA Translation in H4 Neuroglioblastoma Cells. [Related pubchem assays: 1829 (Project Summary), 1814 (Primary HTS)]; assay type: functional
[6] = system: H4; experiment: Luminescence Cell-Based Dose Response HTS to Identify Activators of 5'UTR Stem-Loop Driven Prion Protein mRNA Translation in H4 Neuroglioblastoma Cells. [Related pubchem assays: 1829 (Project Summary), 1814 (Primary HTS)]; assay type: functional; conditions: Homo sapiens
[7] = target: T2, Mannose-6-phosphate isomerase; experiment: human PMI inhibitors, high substrate, primary screen, biochemical, fluorescence intensity, high mannose 6-phosphate (AID 1220)
[8] = growth suppression of PTEN-null colon cells, dose response, cell-based, HCT116 PTEN knockout (AID 1047); assay type: functional;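 further: HCT116 colon tumor cells with PTEN knocked out; cells exposed to compound for 60 hours before readout; potency for loss of cell viability measured by luminescence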
[9] = target: Serine/threonine-protein phosphatase PP1-alpha catalytic subunit (Homo sapiens, UniProt P62136); experiment: PP1 phosphatase inhibitors, dose response, biochemical, fluorescence (AID 2403);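 further: phosphatase turnover of OMFP into fluorescent 3-O-methylfluorescein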
Sequence of Serine/threonine-protein phosphatase PP1-alpha catalytic subunit (P62136 whole entry): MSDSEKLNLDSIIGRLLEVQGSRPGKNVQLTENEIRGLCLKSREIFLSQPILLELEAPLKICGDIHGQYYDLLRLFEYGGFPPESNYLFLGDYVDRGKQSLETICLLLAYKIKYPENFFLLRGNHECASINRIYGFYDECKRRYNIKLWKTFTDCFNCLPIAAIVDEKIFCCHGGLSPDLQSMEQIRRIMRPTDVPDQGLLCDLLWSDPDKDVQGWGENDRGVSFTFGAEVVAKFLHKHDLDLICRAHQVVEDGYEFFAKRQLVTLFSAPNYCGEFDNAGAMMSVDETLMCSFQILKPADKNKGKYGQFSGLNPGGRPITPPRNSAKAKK

[10] = target: Serine/threonine-protein phosphatase (Homo sapiens, UniProt Q9BPW0); experiment: Counterscreen for inhibitors of PP1: fluorescence-based biochemical high throughput dose response assay to identify inhibitors of Protein Phosphatase 5 (PP5). [Related pubchem assays: 2034 (Summary (PP5 inhibitors)), 1987 (PP5 inhibitors in singlate), 2235 (PP1 inhibitors in singlate)]
Sequence of Serine/threonine-protein phosphatase (Q9BPW0 whole entry): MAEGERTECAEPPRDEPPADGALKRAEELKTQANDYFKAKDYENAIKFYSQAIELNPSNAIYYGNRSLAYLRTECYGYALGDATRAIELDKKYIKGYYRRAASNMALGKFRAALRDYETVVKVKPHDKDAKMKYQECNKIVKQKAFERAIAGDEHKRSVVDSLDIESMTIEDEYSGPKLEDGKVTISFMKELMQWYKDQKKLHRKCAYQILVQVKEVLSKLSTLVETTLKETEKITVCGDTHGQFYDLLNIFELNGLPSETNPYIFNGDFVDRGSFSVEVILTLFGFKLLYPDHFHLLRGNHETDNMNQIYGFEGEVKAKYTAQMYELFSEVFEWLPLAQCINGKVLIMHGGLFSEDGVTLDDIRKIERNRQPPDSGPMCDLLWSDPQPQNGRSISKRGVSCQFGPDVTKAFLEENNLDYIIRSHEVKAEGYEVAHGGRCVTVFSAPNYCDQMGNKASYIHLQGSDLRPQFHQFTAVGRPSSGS

[11] = growth suppression of beta-catenin-knockout colon cells, dose response, cell-based, HCT116, human colon tumor (AID 1045); assay type: functional;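 further: HCT116 colon tumor cells with beta catenin knocked out; cells exposed to compound for 60 hours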
[12] = enhancers of respiration in Yfh1-depleted yeast, dose response, Friedreich's ataxia, plus single-dose screen (AID 1465); assay type: functional;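 further: yeast depleted of Yfh1p frataxin homolog grown on glycerol needing respiration; WST-1 tetrazolium dye reduction as measure of cellular dehydrogenase metabolic activity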
[13] = NIH-3T3 fibroblast cytotoxicity, dose response, cytotoxicity control, cell-based, fluorescence, Alamar Blue, secondary assay (AID 2327); assay type: functional;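 further: NIH-3T3 mouse fibroblasts cultured with fluconazole at 8 µg/mL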
[14] = cells; assay type: functional, cell-based
[15] = microbe, parasite or virus in culture; assay type: functional; conditions: Mycobacterium tuberculosis
[16] = target: Nonstructural protein 1 (Influenza A virus, UniProt Q194T2); assay type: functional, Influenza A virus (A/California/07/2009(H1N1))
Sequence of Nonstructural protein 1 (Q194T2 whole entry): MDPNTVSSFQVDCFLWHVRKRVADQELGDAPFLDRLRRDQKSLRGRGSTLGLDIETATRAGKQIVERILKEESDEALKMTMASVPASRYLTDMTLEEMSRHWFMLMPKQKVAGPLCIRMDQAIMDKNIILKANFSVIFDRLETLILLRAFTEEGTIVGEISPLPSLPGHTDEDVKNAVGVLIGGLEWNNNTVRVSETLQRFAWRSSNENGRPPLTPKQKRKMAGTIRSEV

[17] = C. albicans growth with fluconazole, confirmation, fluorescence, retest (AID 2467); assay type: functional, cell-based
[18] = target: T3, Short transient receptor potential channel 4 (Mus musculus, UniProt Q9QUQ5); experiment: mouse TRPC4 channel inhibitors, dose response, cell-based, HEK293 TRPC4/mu-opioid, Fluo-4 calcium (AID 434942); assay type: functional;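 further: potency of inhibitors blocking the TRPC4 calcium response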
T3 sequence (Q9QUQ5 whole entry): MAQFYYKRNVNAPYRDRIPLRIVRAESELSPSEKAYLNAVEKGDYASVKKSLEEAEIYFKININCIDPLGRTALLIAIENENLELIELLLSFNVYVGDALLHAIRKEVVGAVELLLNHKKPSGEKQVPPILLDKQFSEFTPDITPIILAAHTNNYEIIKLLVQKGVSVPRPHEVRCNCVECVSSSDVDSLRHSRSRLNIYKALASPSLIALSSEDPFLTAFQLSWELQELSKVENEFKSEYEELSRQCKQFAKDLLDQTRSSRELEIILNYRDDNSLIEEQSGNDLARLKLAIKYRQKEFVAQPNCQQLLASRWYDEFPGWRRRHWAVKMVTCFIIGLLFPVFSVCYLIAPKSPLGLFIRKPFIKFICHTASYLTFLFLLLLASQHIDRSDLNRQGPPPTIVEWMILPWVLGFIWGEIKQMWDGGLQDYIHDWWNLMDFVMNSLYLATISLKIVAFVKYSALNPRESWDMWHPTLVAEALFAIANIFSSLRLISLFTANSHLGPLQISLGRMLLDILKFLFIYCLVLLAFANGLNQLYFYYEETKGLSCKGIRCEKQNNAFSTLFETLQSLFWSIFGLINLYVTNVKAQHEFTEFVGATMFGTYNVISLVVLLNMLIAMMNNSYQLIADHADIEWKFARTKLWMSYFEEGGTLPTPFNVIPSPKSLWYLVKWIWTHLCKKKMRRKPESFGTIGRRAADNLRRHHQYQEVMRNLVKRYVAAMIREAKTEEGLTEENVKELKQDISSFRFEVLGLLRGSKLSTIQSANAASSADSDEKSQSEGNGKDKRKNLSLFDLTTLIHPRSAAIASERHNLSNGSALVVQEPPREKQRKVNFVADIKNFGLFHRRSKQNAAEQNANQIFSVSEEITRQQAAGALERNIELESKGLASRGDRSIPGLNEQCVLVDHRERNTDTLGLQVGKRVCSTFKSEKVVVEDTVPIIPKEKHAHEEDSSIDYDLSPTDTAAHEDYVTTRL

[19] = cells; assay type: functional, cell-based; remark: listed apart in the source
[20] = HIV-1 Env-mediated cell fusion inhibitors, dose response, CCR5-tropic Env (AID 2279); assay type: functional
[21] = system: INS1; experiment: beta cell apoptosis inhibitors, cytokine rescue, dose response, luminescence, retest (AID 449756); assay type: functional, cell-based; conditions: Rattus norvegicus;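 further: cell death triggered by IL-1 beta plus TNF-alpha plus IFN-gamma mixture; protective hits raise ATP signal compared with cytokine alone wells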
[22] = target: Photoreceptor-specific nuclear receptor (Homo sapiens, UniProt Q9Y5X4); assay type: functional, cell-based;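 further: CHO-S cells with Gal4-NCOR and VP16-NR2E3 two-hybrid luciferase reporter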
Sequence of Photoreceptor-specific nuclear receptor (Q9Y5X4 whole entry, the tested form may be a part): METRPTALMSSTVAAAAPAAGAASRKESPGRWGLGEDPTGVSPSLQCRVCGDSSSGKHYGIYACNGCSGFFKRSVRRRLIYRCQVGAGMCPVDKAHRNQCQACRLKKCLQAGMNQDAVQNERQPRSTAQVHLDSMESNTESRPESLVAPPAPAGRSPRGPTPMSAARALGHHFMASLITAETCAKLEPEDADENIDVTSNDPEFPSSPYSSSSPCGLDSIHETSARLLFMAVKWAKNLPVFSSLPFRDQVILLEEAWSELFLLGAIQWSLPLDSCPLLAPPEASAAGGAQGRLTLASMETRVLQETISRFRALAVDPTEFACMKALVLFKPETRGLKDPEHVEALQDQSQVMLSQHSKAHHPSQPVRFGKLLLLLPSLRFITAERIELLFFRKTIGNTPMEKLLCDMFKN

COc1ccc(S(=O)(=O)c2ccc(NC(=O)c3ccccc3Cl)cc2C#N)cc1
EC50 [1]: 5.44 µM (active)
EC50 [2]: 40.5 µM (active)

c1ccc(-c2cc(N3CCCCCC3)n[nH]2)cc1
IC50 [3]: > 50 µM (not active)
EC50 [4]: 30.9 µM (active)
EC50 [5]: 5.19 µM (active)
EC50 [6]: 9.81 µM (active)
IC50 [7]: > 50 µM (not active)

COc1ccc2c(Cl)c(C(=O)N/N=C/c3ccc4c(c3)OCO4)sc2c1
EC50 [8]: 20.7 µM (active)
IC50 [9]: 5.11 µM (active)
IC50 [10]: > 67 µM (not active)
EC50 [11]: 25.4 µM (active)

COc1cccc(N/N=C2\C(=O)Nn3c2nc2c(c3=O)CCC2)c1
EC50 [12]: > 100 µM (active)

Brc1ccc(N/N=C(/N=Nc2nn[nH]n2)c2ccccc2)cc1
EC50 [13]: 2.55 µM (inconclusive)
EC50 [14]: 47.2 µM (active)
CC50 [15]: 7.7 µM (active)
IC50 [16]: 6 µM (active)
EC50 [17]: > 38 µM (not active)
EC50 [18]: 7.5 µM (active)
EC50 [19]: 86.5 µM (active)
IC50 [20]: 9.87 µM (active)
AC50 [21]: 1.77 µM (active)
IC50 [22]: 6.49 µM (active)
